Laboratory results published in ChEMBL document CHEMBL4304811, “Development of a Water-Soluble Indolylmaleimide Derivative IM-93 Showing Dual Inhibition of Ferroptosis and NETosis” (ACS Med Chem Lett, 2019).

How the values were obtained:
[1] = molecular target: 5'-AMP-activated protein kinase catalytic subunit alpha-2 (Homo sapiens) (UniProt P54646); assay: Binding affinity to wild-type human partial length AMPK alpha2 (M1 to E306 residues) expressed in bacterial expression system assessed as residual binding level at 10 uM by Kinomescan method relative to control
5'-AMP-activated protein kinase catalytic subunit alpha-2 (Homo sapiens), sequence (P54646 whole entry, looked up, the tested form may be a part): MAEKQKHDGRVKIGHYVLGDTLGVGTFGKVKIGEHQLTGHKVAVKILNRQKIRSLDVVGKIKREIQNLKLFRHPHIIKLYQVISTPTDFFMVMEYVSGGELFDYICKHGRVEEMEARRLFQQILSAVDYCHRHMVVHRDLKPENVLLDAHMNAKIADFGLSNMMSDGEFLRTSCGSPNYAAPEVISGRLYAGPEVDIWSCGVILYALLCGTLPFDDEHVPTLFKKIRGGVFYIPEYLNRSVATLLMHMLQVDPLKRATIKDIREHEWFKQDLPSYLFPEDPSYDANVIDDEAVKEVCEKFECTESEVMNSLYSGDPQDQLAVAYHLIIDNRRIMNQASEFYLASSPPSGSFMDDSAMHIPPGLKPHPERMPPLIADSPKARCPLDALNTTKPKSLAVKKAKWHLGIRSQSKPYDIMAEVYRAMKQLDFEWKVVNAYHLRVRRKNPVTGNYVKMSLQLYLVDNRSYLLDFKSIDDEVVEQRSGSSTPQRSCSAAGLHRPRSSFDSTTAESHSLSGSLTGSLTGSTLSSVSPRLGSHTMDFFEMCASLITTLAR

[2] = molecular target: Calcium/calmodulin-dependent protein kinase kinase 1 (Homo sapiens) (UniProt Q8N5S9); assay: Binding affinity to wild-type human partial length CAMKK1 (R65 to E414 residues) expressed in bacterial expression system assessed as residual binding level at 10 uM by Kinomescan method relative to control
Calcium/calmodulin-dependent protein kinase kinase 1 (Homo sapiens), sequence (Q8N5S9 whole entry, looked up, the tested form may be a part): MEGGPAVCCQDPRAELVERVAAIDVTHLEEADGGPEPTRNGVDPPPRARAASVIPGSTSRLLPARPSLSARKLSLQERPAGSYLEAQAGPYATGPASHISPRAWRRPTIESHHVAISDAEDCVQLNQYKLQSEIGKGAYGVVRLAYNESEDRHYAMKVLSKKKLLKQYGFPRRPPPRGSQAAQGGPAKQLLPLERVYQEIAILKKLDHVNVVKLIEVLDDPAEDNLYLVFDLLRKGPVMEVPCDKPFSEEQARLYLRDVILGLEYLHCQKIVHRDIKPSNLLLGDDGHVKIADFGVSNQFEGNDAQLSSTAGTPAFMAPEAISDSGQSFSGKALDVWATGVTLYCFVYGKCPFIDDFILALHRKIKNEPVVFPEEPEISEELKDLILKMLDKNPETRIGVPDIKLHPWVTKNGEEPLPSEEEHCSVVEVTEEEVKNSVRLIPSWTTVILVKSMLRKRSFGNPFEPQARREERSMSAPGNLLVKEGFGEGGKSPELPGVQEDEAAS

[3] = molecular target: Tyrosine-protein kinase CSK (Homo sapiens) (UniProt P41240); assay: Binding affinity to wild-type human full length CSK (M1 to L450 residues) expressed in bacterial expression system assessed as residual binding level at 10 uM by Kinomescan method relative to control
Tyrosine-protein kinase CSK (Homo sapiens), sequence (P41240 2-450 limits assumed): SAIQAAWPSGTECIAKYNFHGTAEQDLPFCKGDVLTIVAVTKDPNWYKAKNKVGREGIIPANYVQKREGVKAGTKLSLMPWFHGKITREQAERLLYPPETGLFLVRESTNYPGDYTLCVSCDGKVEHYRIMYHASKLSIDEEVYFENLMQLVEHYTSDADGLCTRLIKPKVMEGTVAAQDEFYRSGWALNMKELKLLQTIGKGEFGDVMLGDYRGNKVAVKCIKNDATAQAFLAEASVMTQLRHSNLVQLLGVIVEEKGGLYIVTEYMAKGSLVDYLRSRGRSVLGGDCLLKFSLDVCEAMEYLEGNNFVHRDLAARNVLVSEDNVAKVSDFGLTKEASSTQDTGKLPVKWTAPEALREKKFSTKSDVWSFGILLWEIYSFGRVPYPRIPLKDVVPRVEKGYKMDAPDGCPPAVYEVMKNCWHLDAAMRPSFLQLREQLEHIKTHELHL

[4] = molecular target: Ephrin type-B receptor 2 (Homo sapiens) (UniProt P29323); assay: Binding affinity to wild-type human partial length EPHB2 (I597 to L902 residues) expressed in bacterial expression system assessed as residual binding level at 10 uM by Kinomescan method relative to control
Ephrin type-B receptor 2 (Homo sapiens), sequence (P29323 whole entry, the tested form may be a part): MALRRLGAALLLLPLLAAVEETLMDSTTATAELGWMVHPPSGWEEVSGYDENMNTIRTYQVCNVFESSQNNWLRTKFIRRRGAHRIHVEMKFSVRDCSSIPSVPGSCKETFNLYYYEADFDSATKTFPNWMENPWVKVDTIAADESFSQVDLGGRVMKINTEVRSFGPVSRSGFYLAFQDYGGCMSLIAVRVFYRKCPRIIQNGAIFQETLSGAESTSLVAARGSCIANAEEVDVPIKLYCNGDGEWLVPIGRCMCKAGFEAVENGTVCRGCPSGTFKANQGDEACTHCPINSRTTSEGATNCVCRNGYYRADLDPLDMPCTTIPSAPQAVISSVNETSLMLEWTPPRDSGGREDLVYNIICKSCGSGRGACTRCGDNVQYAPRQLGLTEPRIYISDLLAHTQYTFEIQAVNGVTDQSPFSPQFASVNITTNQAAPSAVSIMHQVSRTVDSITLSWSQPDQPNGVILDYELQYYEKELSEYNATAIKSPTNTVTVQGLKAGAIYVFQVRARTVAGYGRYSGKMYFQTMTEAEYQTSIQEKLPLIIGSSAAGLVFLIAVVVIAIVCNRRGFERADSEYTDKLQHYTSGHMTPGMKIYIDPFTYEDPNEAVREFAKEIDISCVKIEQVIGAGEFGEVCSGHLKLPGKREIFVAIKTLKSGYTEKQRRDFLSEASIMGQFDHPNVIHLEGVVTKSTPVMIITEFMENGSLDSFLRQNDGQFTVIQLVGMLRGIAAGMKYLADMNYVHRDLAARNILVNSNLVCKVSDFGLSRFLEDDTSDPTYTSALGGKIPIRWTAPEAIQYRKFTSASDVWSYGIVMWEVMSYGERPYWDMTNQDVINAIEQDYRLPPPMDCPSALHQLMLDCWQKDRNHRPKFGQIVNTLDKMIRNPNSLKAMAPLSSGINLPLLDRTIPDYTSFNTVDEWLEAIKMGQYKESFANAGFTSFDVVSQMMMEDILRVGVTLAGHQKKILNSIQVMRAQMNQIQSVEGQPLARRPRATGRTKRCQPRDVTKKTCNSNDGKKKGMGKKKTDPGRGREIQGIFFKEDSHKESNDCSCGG

[5] = test system: Receptor-type tyrosine-protein kinase FLT3 (Homo sapiens), P36888 [K663Q]; assay: Binding affinity to human partial length FLT3 K663Q mutant (V592 to Y969 residues) expressed in bacterial expression system assessed as residual binding level at 10 uM by Kinomescan method relative to control
[6] = molecular target: Homeodomain-interacting protein kinase 4 (Homo sapiens) (UniProt Q8NE63); assay: Binding affinity to wild-type human partial length HIPK4 (M1 to V384 residues) expressed in bacterial expression system assessed as residual binding level at 10 uM by Kinomescan method relative to control
Homeodomain-interacting protein kinase 4 (Homo sapiens), sequence (Q8NE63 whole entry, the tested form may be a part): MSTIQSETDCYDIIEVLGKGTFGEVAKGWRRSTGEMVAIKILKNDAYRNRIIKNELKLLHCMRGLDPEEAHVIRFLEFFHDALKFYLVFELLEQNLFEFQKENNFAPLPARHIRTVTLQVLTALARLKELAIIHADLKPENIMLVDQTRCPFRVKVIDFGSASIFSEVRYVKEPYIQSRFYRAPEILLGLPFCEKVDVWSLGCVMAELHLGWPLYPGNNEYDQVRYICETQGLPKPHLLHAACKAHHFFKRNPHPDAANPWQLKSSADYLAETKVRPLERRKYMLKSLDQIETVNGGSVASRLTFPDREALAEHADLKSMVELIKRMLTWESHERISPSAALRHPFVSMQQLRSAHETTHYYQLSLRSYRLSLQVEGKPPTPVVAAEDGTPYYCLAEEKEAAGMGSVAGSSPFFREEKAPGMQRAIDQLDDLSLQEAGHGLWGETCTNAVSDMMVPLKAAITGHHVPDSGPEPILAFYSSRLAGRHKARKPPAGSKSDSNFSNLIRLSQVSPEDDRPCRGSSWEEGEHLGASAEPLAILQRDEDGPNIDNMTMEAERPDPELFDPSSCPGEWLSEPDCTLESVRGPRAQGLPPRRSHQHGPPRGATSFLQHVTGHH

[7] = molecular target: Dual specificity mitogen-activated protein kinase kinase 6 (Homo sapiens) (UniProt P52564); assay: Binding affinity to wild-type human partial length MEK6 (K36 to D334 residues) expressed in bacterial expression system assessed as residual binding level at 10 uM by Kinomescan method relative to control
Dual specificity mitogen-activated protein kinase kinase 6 (Homo sapiens), sequence (P52564 whole entry, the tested form may be a part): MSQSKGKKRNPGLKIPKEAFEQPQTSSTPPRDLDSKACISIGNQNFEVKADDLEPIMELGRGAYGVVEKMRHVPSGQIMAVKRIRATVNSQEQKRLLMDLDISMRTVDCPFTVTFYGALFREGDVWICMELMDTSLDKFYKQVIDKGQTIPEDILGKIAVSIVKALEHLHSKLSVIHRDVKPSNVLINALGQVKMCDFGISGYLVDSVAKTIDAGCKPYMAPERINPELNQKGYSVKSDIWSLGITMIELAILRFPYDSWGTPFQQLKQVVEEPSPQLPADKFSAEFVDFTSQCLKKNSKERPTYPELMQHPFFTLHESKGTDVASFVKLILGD

Work on `CC(C)N1C(=O)C(NCCCN(C)C)=C(c2cn(C)c3ccccc23)C1=O.Cl` yielded an Activity [1] of 89%, an Activity [2] of 93% and an Activity [3] of 96%. For the same compound, the Activity [4] was 97%, the Activity [5] was 97% and the Activity [6] was 84%. The Activity [7] was 99%.
